Experimental data from article PMC5658362 (Scientific Reports, 2017).
Entries after “also recorded” stand apart in the source; their conditions may differ. Where a name gives a salt, the structure may show the parent alone.

Tests used:
[1] = system: wild-type H. pylori PMSS1; experiment: Swimming behaviour (direction change) chemotaxis assay, wild type; format: cell-based, Helicobacter pylori
McpP = target: McpP; parameters: method as in PMID 26048936; conditions: P. aeruginosa sCACHE receptor McpP; cited from earlier work
TlpC LBD = target: T1, TlpC LBD (Helicobacter pylori, UniProt O24911); experiment: ITC titration of TlpC LBD variant with lactate; format: binding; conditions: text prints Y285A substitution
T1 sequence (O24911 34-297 Y285F): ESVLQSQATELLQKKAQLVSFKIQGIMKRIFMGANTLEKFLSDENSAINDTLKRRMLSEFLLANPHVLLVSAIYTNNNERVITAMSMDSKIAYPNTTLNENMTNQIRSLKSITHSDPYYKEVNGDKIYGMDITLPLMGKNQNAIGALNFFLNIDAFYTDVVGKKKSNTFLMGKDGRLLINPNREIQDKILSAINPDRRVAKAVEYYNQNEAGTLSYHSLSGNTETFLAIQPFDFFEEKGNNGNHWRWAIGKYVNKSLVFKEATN

TlpC LBD native = TlpC LBD native (Helicobacter pylori, UniProt O24911); experiment: ITC titration of TlpC LBD with ligand; format: binding; conditions: for heat release or absorption on titration (binding): 5 mM ligand into 10 µM protein
Protocol: (§1) The expression vectors for single-point variants of TlpC LBD in which S104, Y151, K153, N213, I218 or Y285 were replaced by alanine, and Y249 by phenylalanine, were prepared from a TlpC-expressing plasmid described previously. This plasmid expresses codon-optimised H. pylori 26695 TlpC LBD consisting of amino acid residues 34–297 (Fig. 1a). Mutants were created using the QuikChange Mutagenesis Kit (Stratagene). TlpC LBD and its variants were expressed and purified following the previously published procedure.
(§2) Measurements were performed on a MicroCal VP-ITC instrument microcalorimeter (MicroCal) at 25 °C. […] The data was fitted to a single-site binding model using non-linear least-squares regression (Origin 7, OriginLab, USA), yielding the binding enthalpy ∆H, dissociation constant K D, and binding entropy […]. Each experiment was repeated three times.

TlpC LBD K153A = target: T2, TlpC LBD K153A (Helicobacter pylori, UniProt O24911, K153A); experiment: ITC titration of TlpC LBD variant with lactate; format: binding
T2 sequence (O24911 34-297 K153A): T1 sequence (O24911 34-297 Y285F)
Protocol: as §1, §2

TlpC LBD N213A = target: T3, TlpC LBD N213A (Helicobacter pylori, UniProt O24911, N213A); experiment: ITC titration of TlpC LBD variant with lactate; format: binding
T3 sequence (O24911 34-297 N213A): T1 sequence (O24911 34-297 Y285F)
Protocol: as §1, §2

TlpC LBD Y151A = target: T4, TlpC LBD Y151A (Helicobacter pylori, UniProt O24911, Y151A); experiment: ITC titration of TlpC LBD variant with lactate; format: binding
T4 sequence (O24911 34-297 Y151A): T1 sequence (O24911 34-297 Y285F)
Protocol: as §1, §2

TlpC LBD I218A = target: T5, TlpC LBD I218A (Helicobacter pylori, UniProt O24911, I218A); experiment: ITC titration of TlpC LBD variant with lactate; format: binding
T5 sequence (O24911 34-297 I218A): T1 sequence (O24911 34-297 Y285F)
Protocol: as §1, §2

TlpC LBD S104A = target: T6, TlpC LBD S104A (Helicobacter pylori, UniProt O24911, S104A); experiment: ITC titration of TlpC LBD variant with lactate; format: binding
T6 sequence (O24911 34-297 S104A): T1 sequence (O24911 34-297 Y285F)
Protocol: as §1, §2

H. pylori = conditions: cited from earlier work
ΔtlpC H. pylori PMSS1 = experiment: Swimming behaviour (direction change) chemotaxis assay, ΔtlpC mutant; format: cell-based, Helicobacter pylori

CC(O)C(=O)O (centres unmarked) [lactate]
chemotactic (attractant) response, direction changes in 3 s ([1]; 0.1 mM lactate): significant response; also recorded: strongest
chemotactic (attractant) response, direction changes in 3 s ([1]; 1.0 mM lactate): detectable
chemotactic (attractant) response, direction changes in 3 s ([1]; 10 mM lactate): not detectable; also recorded: did not elicit a positive chemotactic response
chemotactic (attractant) response, direction changes in 3 s ([1]; concentrations higher than 0.1 mM): lost the response
optimal concentration at which lactate is sensed as attractant ([1]; order of magnitude, tested 0.1-10 mM): 0.1 mM
Kd (McpP): 107 µM
effect of substitution on lactate binding (TlpC LBD): abolished the binding
Enthalpy, ∆H (TlpC LBD native; native TlpC LBD): −21,323.3 ± 713.0 cal/mol
Entropy, ∆S (TlpC LBD native; native TlpC LBD): −54.1 ± 2.0 cal/mol/degree
Enthalpy, ∆H (TlpC LBD K153A): −12,730 ± 345.0 cal/mol
Entropy, ∆S (TlpC LBD K153A): −27.5 ± 1.0 cal/mol/degree
effect of substitution on lactate binding (TlpC LBD N213A): abolished the binding
Enthalpy, ∆H (TlpC LBD Y151A): −12,040 ± 250.2 cal/mol
Entropy, ∆S (TlpC LBD Y151A): −24.1 ± 1.0 cal/mol/degree
Enthalpy, ∆H (TlpC LBD I218A): −18,145.0 ± 49.0 cal/mol
Entropy, ∆S (TlpC LBD I218A): −49.4 ± 0.2 cal/mol/degree
Enthalpy, ∆H (TlpC LBD S104A): −13,105 ± 318.0 cal/mol
Entropy, ∆S (TlpC LBD S104A): −28.2 ± 1.0 cal/mol/degree
concentration with inhibitory effect on H. pylori growth (H. pylori): ≥ 10 mM
inhibitory effect on H. pylori viability among tested SCFA (H. pylori; short chain fatty acids secreted by LAB): strongest inhibitory effect
chemotactic response to lactate (ΔtlpC H. pylori PMSS1; all tested concentrations (0.1, 1, 10 mM)): abolished the chemotactic response; also recorded: drastically reduced

CC(=O)O [acetate]
binding to McpP (McpP): binds

c1ccc(-c2ccccn2)nc1 [dipyridyl]
chemotaxis response (attractant) (ΔtlpC H. pylori PMSS1; 50 μM dipyridyl): retained chemotaxis responses

O=C(O)CC(O)C(=O)O (centres unmarked) [malate]
heat release or absorption on titration (binding) (TlpC LBD native): no significant heat release or absorption

CC(=O)C(=O)O [pyruvate]
binding to McpP (McpP): binds
heat release or absorption on titration (binding) (TlpC LBD native): no significant heat release or absorption

Cl [HCl]
chemotaxis response (repellent) (ΔtlpC H. pylori PMSS1; 10 mM HCl): retained chemotaxis responses

O=C(O)CC(=O)C(=O)O [oxaloacetate]
heat release or absorption on titration (binding) (TlpC LBD native): no significant heat release or absorption

CCC(=O)O [propionate]
binding to McpP (McpP): binds
